Data: patent publication US5597848A, “Benzenesulfonamide derivatives and use thereof” (Hokuriku Seiyaku Co., Ltd., priority 1992, dated 1997)

How the values were obtained:
[1] = test system: broncho-constriction induced by U-46619; experiment: Inhibitory effect on broncho-constriction induced by U-46619 (Konzett-Roessler method, oral); format: in vivo, Male hartley guinea-pigs; conditions: 0.3 mg/kg orally, 2 hrs before U-46619 4 μg/kg
Procedure: Airway resistance was evaluated according to the method of Konzett-Roessler[Naunyn-Schmiedberg's Arch. Exp. Path. Pharmak., Vol. 195, 71 (1940)]. Male hartley guinea-pigs (about 400 g wt.) were anesthetized with urethane (1.5 g/kg, i.p.) and ventilated by an artificial respirator (Model 683; Harvard). At that time, overflowed air volume above the pressure of about 12 cm H2 O was measured by using a sensor (Model 7020; Ugo basile) and the value was used as an index of broncho-constriction. 0.3 mg/kg (5 ml/kg) of test compounds suspended in 5% gum Arabic was administered orally to Guinea-pigs fasted beforehand for 24 hr. After 2 hrs, U-46619 (4 μg/kg; Cayman) was administered through the cervical vein, and then maximal response was measured. Inhibitory rates compared to the reference group were calculated based on the response rate normalized by the complete closure as 100%.

[2] = target: T1, thromboxane A2 synthetase (Homo sapiens, UniProt P24557); experiment: Inhibitory effect on thromboxane A2 synthetase (human platelet membrane fraction, thromboxane B2 RIA); format: biochemical; conditions: 3 min at 25° C., read-out: IC50 (50% inhibition of the enzyme activity)
T1 construct: human platelet membrane fraction (RAN) as a source of thromboxane A2 synthetase; purchased RAN; host or cells: human platelet membrane fraction
T1 sequence (P24557 1-533): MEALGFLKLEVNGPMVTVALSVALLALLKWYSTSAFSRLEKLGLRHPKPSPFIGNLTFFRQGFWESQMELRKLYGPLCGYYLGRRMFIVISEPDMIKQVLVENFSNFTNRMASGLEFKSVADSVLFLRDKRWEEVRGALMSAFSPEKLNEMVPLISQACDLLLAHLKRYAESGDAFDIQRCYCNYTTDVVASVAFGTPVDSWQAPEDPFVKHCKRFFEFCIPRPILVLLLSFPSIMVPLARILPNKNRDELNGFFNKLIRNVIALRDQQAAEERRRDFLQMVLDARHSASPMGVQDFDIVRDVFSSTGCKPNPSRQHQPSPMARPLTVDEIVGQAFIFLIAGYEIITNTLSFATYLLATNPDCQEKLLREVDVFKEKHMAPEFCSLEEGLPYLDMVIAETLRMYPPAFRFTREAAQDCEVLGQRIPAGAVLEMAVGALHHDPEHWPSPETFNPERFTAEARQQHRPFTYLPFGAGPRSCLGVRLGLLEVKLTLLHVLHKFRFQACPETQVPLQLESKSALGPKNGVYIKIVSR
Procedure: 100 μg/ml (285 μl) of the commercially available human platelet membrane fraction (RAN) as a source of thromboxane A2 synthetase, dimethyl sulfoxide solution of test compounds (10 μl) and 100 μg/ml (5 μl) of prostaglandin H2 (Cayman) were mixed and reaction was carried out for 3 min at 25° C. Amount of thromboxane B2, a stable metabolite derived from thromboxane A2 produced, was measured by RIA method (TXB2 quantification kit; NEN).

leukotriene D4 = target: T2, leukotriene D4 (Cavia porcellus, UniProt Q2NNR5); experiment: Leukotriene D4 antagonistic effect in isolated trachea (Schild method); set-up: species or system male Hartley guinea-pigs; conditions: for Kb: isolated trachea, 30 min treatment, indomethacin 3×10^-6 M, Krebs 37° C.
T2 construct: tracheas were isolated from male Hartley guinea-pigs; from tissue; host or cells: isolated trachea of male Hartley guinea-pigs
T2 sequence (Q2NNR5 1-340): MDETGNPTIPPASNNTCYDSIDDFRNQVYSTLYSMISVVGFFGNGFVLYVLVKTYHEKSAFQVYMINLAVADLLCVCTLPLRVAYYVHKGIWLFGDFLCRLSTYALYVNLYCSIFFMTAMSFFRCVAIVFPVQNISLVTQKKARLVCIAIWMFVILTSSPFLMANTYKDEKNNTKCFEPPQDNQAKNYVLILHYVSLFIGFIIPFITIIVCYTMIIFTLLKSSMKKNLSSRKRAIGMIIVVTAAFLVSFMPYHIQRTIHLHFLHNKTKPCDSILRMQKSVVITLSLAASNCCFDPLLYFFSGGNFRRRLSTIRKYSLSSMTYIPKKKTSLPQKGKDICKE
Procedure: According to an ordinary method, tracheas were isolated from male Hartley guinea-pigs, and ring specimens of approximately […] length were prepared. These specimens were suspended isotonically in organ baths that contained Krebs solution at 37° C. under a resting tension of 0.5 g. After repeated contractions with acetylcholine (1×10^-6 M; Ovisot for injection, Daiichi Seiyaku), and the first concentration-response curves was obtained by cummulative applications of leukotriene D4 (ULTRA FINE) into the organ baths. After treatments with test compounds at adequate concentrations for 30 min, the second concentration-response curves were obtained in the same manner as first applications. pKB values were calculated using these two concentration-response curves according to the method of Schild [Pharmacological Review, Vol. 9, 242 (1957)]. Indomethacin (3×10^-6 M; Sigma) was added beforehand to the organ bath to eliminate possible affections by thromboxane A2 and prostaglandin produced by stimulus of leukotriene D4 [Japan J. Pharmacol., Vol. 60, 227 (1992)].

[3] = test system: broncho-constriction induced by leukotriene D4; experiment: Inhibitory effect on broncho-constriction induced by leukotriene D4 (Konzett-Roessler method, oral); format: in vivo, male Hartley guinea-pig
Procedure: Airway resistance was evaluated according to the method of Konzett-Roessler[Naunyn-Schmiedberg's Arch. Exp. Path. Pharmak., Vol. 195, 71 (1940)]. After male Hartley guinea-pig fasted beforehand for 24 hr were anesthetized with urethane, overflowed air volume was measured under artificial ventilation as an index of broncho-constriction. 30 mg/kg (5 ml/kg) of test compounds suspended in 5% gum Arabic were administered orally to […]. Leukotriene D4 (1 μg/kg; ULTRA FINE) was administered through the cervical vein after 2 hr, and then values were measured at 2 min after the time when responses became maximum. Inhibitory rates compared to the control group were calculated based on the response rate normalized by the overflowed volume at complete closure as 100% broncho-constriction state. Indomethacin (2 mg/kg, i.v.) and propranolol (1 mg/kg, i.v.) were administered at 10 min and 5 min before the administration of leukotriene D4, respectively.

thromboxane A2 receptor = target: T3, thromboxane A2 receptor (Cavia porcellus, UniProt A0A286Y4I8); experiment: Thromboxane A2 antagonistic effect: inhibition of U-46619-induced platelet aggregation in guinea-pig platelet-rich plasma; format: cell-based, guinea-pigs; conditions: guinea-pig PRP, U-46619 2 μg/ml, 2 min at 37° C.; read-out: IC50 (50% inhibition against platelet aggregation)
T3 construct: platelet-rich plasma; endogenous in cells; host or cells: guinea-pig platelets in platelet-rich plasma
T3 sequence (A0A286Y4I8 1-347): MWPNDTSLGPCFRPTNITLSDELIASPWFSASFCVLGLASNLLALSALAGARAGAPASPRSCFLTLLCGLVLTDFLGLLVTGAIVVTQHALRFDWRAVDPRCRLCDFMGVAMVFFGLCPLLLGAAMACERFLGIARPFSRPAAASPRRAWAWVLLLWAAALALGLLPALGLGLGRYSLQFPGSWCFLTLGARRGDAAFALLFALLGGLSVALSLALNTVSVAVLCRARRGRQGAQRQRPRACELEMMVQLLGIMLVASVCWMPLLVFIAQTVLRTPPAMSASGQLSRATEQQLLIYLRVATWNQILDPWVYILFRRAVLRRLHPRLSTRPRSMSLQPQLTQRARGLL
Procedure: Blood was collected from the abdominal aorta of guinea-pigs (about 400 g wt.) into 1/10 volume of 3.8% sodium citrate, and then platelet-rich plasma (PRP: 6×10^5 cells/μl) was obtained by centrifugation. A cuvette was filled with PRP 190 μl and set in an aggregometer (Hema Tracer I; Niko Bioscience). Incubation was carried out for 2 min. at 37° C. after the addition of 1 μl of dimethyl sulfoxide solution of test compounds. To the PRP, 10 μl of U-46619 (Cayman), a thromboxane A2 /prostaglandin H2 receptor agonist and potent platelet aggregation inducer, was added at the final concentration of 2 μg/ml, and platelet aggregation was measured by an aggregometer.

SMILES | Inhibition rate [1] | IC50 [2] | leukotriene D4 antagonistic effect (in words) (leukotriene D4) | Kb (leukotriene D4) | inhibition in vivo at 30 mg/kg ([3]; Cavia porcellus, po, 30 mg/kg orally, leukotriene D4 1 μg/kg after 2 hr, indomethacin and propranolol pretreatment, read-out: Inhibition rate) | inhibitory effect on broncho-constriction induced by leukotriene D4 (in words) ([3]; guinea pig, in vivo) | IC50 (thromboxane A2 receptor)
O=C(O)Cc1ccc(CCNS(=O)(=O)c2ccc(Cl)cc2)cc1 [Reference compound, reference compound] | 18% | 40000 nM | inactive | > 100000 nM | ≤ 0% | no inhibitory effect | 
CC(C)C(NS(=O)(=O)c1ccc(Cl)cc1)c1ccc(CCCC(=O)O)cc1 (stereo not shown) [Example 69, 4-[4-[1-(4-Chlorophenylsulfonylamino)-2-methylpropyl]phenyl]butyric Acid] |  | 2000 nM |  |  |  |  | 200 nM
O=C(O)CCCc1ccc(C(NS(=O)(=O)c2ccc(Cl)cc2)C2CCCCC2)cc1 (stereo not shown) [Example 74, 4-[4-[(4-Chlorophenylsulfonylamino)cyclohexylmethyl]phenyl]butyric Acid] |  | 3200 nM |  | 501 nM |  |  | 320 nM
O=C(O)CCCc1ccc(C(Cc2ccccc2)NS(=O)(=O)c2ccc(Cl)cc2)cc1 (stereo not shown) [Example 62, 4-[4-[1-(4-Chlorophenylsulfonylamino)-2-phenylethyl]phenyl]butyric Acid] |  | 4000 nM |  |  |  |  | 50 nM
